The values below are quoted from earlier work in US20100286187A1, “METHOD OF PREDICTING SURVIVAL OF A NON-SMALL-CELL LUNG CANCER PATIENT TO A CHEMOTHERAPEUTIC TREATMENT” (PANGAEA BIOTECH S.A., priority 2006, published 2010).

In series [1] the test system is non-small cell lung cancer (NSCLC) patients. The settings on record: single agent, previously untreated NSCLC patients.
Series [2] has as its system non-small cell lung cancer (NSCLC). The settings on record: randomized study, per arm.

For the compound `CC(=O)O[C@@]12CO[C@@H]1C[C@H](O)[C@@]1(C)C(=O)[C@H](O)C3=C(C)[C@@H](OC(=O)[C@H](O)[C@@H](NC(=O)OC(C)(C)C)c4ccccc4)C[C@@](O)([C@@H](OC(=O)c4ccccc4)[C@H]21)C3(C)C` [Docetaxel], the Response rates in series [1] is given as 21-38%.

For the compound paclitaxel/carboplatin, the Median survival in series [2] was 8.2 months.
